BindingDB's records for patent US20250313563 (The Broad Institute, 2025)
pIC50: −log10 of the molar value. Several values for one entry are separate records, joined by “and”; a condition that tells them apart may be missing. Equal entries are not always repeated.

Key:
[1] = biological target: Glycogen synthase kinase-3 alpha (Homo sapiens, UniProt P49840); test: TR-FRET Assay
Summary of the method: (§1)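 Compound was preincubated 30 min in assay buffer before the kinase reaction, which was quenched with EDTA. Phosphorylation was detected by TR-FRET after adding a solution of 40 nM streptavidin-d2 and 2 nM Tb-labelled anti-pSer641 antibody.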

[2] = biological target: Glycogen synthase kinase-3 beta (Homo sapiens, UniProt P49841); test: TR-FRET Assay
Summary of the method: as §1

Glycogen synthase kinase-3 alpha, sequence (P49840 whole entry): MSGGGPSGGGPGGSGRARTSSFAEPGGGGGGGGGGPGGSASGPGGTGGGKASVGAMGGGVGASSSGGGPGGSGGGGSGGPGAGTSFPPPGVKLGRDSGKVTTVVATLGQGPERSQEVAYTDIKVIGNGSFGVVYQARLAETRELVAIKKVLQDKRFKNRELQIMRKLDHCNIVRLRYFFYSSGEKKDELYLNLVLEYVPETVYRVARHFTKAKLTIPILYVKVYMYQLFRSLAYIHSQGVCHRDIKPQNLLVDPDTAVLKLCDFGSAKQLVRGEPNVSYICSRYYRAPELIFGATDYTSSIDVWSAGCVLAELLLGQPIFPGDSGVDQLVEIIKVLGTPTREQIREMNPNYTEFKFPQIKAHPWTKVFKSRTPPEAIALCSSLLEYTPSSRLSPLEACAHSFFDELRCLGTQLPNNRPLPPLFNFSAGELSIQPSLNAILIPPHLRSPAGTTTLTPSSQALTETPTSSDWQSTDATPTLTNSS
Glycogen synthase kinase-3 beta, sequence (P49841 whole entry): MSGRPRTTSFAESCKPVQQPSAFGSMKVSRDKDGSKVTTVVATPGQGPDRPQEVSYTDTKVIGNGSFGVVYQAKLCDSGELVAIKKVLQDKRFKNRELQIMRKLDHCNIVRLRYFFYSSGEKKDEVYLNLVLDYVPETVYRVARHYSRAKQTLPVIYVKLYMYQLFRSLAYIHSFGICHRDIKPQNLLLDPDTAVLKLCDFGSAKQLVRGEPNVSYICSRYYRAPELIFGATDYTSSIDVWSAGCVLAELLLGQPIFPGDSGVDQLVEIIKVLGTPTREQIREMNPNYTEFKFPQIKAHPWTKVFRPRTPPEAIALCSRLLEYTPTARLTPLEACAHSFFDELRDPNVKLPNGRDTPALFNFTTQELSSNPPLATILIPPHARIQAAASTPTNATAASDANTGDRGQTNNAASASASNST

pIC50 [1]	pIC50 [2]	Structure (SMILES)
> 7.00	6.00 to 7.00	CC[C@]1(c2cccc(C(F)(F)F)c2)C2=CN=NC2NC2=C1C(=O)N(c1cscn1)CC2 (stereo partly specified) [US20250313563, Compound 952629]
6.00 to 7.00	6.00 to 7.00	CC[C@]1(c2cccc(-c3cnn4c3CCCC4)c2)C2=C(CC(C)(C)NC2=O)NC2N=NC(C(F)(F)F)=C21 (stereo partly specified) [US20250313563, Compound 948772]
> 7.00	6.00 to 7.00	CCC1(c2cccc(N(C)C(=O)CCc3ccccc3)c2)C2=CN=NC2NC2=C1C(=O)CC(C)(C)C2 (stereo unspecified) [US20250313563, Compound 912066]
> 7.00	> 7.00	Cc1ccc(S(=O)(=O)N2CCC3(CC2)C2=C(N=NC2)NC2=C3C(=O)CC(C)(C)C2)cc1Cl [US20250313563, Compound 947241]
5.30 to 6.00	< 5.30	CC[C@@]1(c2cccc(N3C[C@@H](C)[C@H](C)C3)c2)C2=CN=NC2NC2=C1C(=O)CC(C)(C)C2 (stereo partly specified) [US20250313563, Compound 924543]
> 7.00	6.00 to 7.00	CC1(C)CC(=O)C2=C(C1)NC1=C(CN=N1)C21CCCSCC1 (stereo unspecified) [US20250313563, Compound 913126]
6.00 to 7.00	5.30 to 6.00	CC[C@]1(c2cccc(-c3cc[n+]([O-])c(C)c3)c2)C2=CN=NC2NC2=C1C(=O)CC(C)(C)C2 (stereo partly specified) [US20250313563, Compound 946055]
> 7.00	> 7.00	CC1(C)CC(=O)C2=C(C1)NC1=C(CN=N1)C21CCCC1 [US20250313563, Compound 790666]
> 7.00	6.00 to 7.00	Cc1cccc2c1CCC21C2=C(N=NC2)NC2=C1C(=O)CC(C)(C)C2 (stereo unspecified) [US20250313563, Compound 806603]
> 7.00 and 6.00 to 7.00	> 7.00 and 6.00 to 7.00	CC[C@@]1(c2cccc(-c3ccnn3C3CC3(F)F)c2)C2=CN=NC2NC2=C1C(=O)NC(C)(C)C2 (stereo partly specified) [US20250313563, Compound 950824]
6.00 to 7.00	< 5.30	CC[C@]1(c2cccc(-c3cnn(C)c3)c2)C2=C(CC(C)(C)NC2=O)NC2N=NC(C(F)F)=C21 (stereo partly specified) [US20250313563, Compound 949911]
6.00 to 7.00	5.30 to 6.00	CC[C@]1(c2cccc(N3C[C@H](C)[C@@H](C)C3)c2)C2=CN=NC2NC2=C1C(=O)CC(C)(C)C2 (stereo partly specified) [US20250313563, Compound 924312]
5.30 to 6.00	< 5.30	CC[C@]1(c2cccc(OC)c2)C2=C(CC(C)(C)NC2=O)NC2N=NC(C)=C21 (stereo partly specified) [US20250313563, Compound 949328]
5.30 to 6.00	5.30 to 6.00	CC1(C)CC(=O)C2=C(C1)NC1N=NC=C1C21CCCN(c2ccncn2)CC1 (stereo unspecified) [US20250313563, Compound 917145]
< 5.30	< 5.30	CC[C@]1(c2cccc(C(F)(F)F)c2)C2=CN=NC2NC2=C1C(=O)NC(C)(C)C2 (stereo partly specified) [US20250313563, Compound 913004]
> 7.00 and 6.00 to 7.00	6.00 to 7.00 and < 5.30	CC[C@@]1(c2cccc(-c3cnnc(C)c3)c2)C2=CN=NC2NC2=C1C(=O)NC(C)(C)C2 (stereo partly specified) [US20250313563, Compound 944074]
< 5.30	< 5.30	CC[C@]1(c2cccc(-c3cc(C)nn3C)c2)C2=CN=NC2NC2=C1C(=O)CC(C)(C)C2 (stereo partly specified) [US20250313563, Compound 946000]
> 7.00	> 7.00	CC[C@]1(c2cccc(Br)c2)C2=C(C[C@H](C)CC2=O)NC2N=NC(C(F)(F)F)=C21 (stereo partly specified) [US20250313563, Compound 828848]
> 7.00	6.00 to 7.00	CCC1(c2cccc(OC)c2)C2=C(CC(C)(C)NC2=O)NC2N=NC(C(F)(F)F)=C21 (stereo unspecified) [US20250313563, Compound 949748]
> 7.00	6.00 to 7.00	CCC1(c2cccc(-c3ccnc4c3CCC4)c2)C2=CN=NC2NC2=C1C(=O)NC(C)(C)C2 (stereo unspecified) [US20250313563, Compound 947676]
6.00 to 7.00	5.30 to 6.00	CCC1(c2cccc(N(C)C(=O)C3CCN(C)CC3)c2)C2=CN=NC2NC2=C1C(=O)CC(C)(C)C2 (stereo unspecified) [US20250313563, Compound 912167]
> 7.00	6.00 to 7.00	CCC1(c2cccc(O)c2)C2=C(N=NC2)NC2=C1C(=O)CC(C)(C)C2 (stereo unspecified) [US20250313563, Compound 930334]
6.00 to 7.00	6.00 to 7.00	CC[C@@]1(c2cccc(S(=O)(=O)CC3CC3)c2)C2=C(CC(C)(C)NC2=O)NC2N=NC(C(F)(F)F)=C21 (stereo partly specified) [US20250313563, Compound 949186]
< 5.30	< 5.30	CC[C@@]1(c2ccccc2)C2=C(N=NC2)NC2=C1C(=O)[C@H]1CC[C@@H]2C1 [US20250313563, Compound 791266]
> 7.00	6.00 to 7.00	Cc1cc(S(=O)(=O)N2CCC3(CC2)C2=C(N=NC2)NC2=C3C(=O)CC(C)(C)C2)ccc1OC(C)C [US20250313563, Compound 945678]
< 5.30	< 5.30	CC1(C)CC(=O)C2=C(C1)NC1=C(CN=N1)C21CN(CCc2ccccc2)C1 [US20250313563, Compound 929441]
> 7.00	> 7.00	CCCC(C(C)=O)c1cccc(C2(CC)C3=CN=NC3NC3=C2C(=O)CC(C)(C)C3)c1 (stereo unspecified) [US20250313563, Compound 909205]

pIC50 [1]	pIC50 [2]	Structure (SMILES)
> 7.00	6.00 to 7.00	CC[C@]1(c2cccc(C(F)(F)F)c2)C2=CN=NC2NC2=C1C(=O)N(c1ccc(C)cc1)CC2 (stereo partly specified) [US20250313563, Compound 949118]
> 7.00	6.00 to 7.00	CC[C@]1(c2cccc(-c3ccnc(C)c3)c2)C2=C(CC3(CCOCC3)NC2=O)NC2N=NC(C)=C21 (stereo partly specified) [US20250313563, Compound 948513]
> 7.00	6.00 to 7.00	CCC1(c2cccc(C(F)(F)F)c2)C2=CN=NC2NC2=C1C(=O)N(C(C)C)CC2 (stereo unspecified) [US20250313563, Compound 825755]
> 7.00 and 6.00 to 7.00	> 7.00 and 5.30 to 6.00	CC[C@@]1(c2cccc(-c3ccncc3C3CC3)c2)C2=CN=NC2NC2=C1C(=O)NC(C)(C)C2 (stereo partly specified) [US20250313563, Compound 950059]
> 7.00	> 7.00	CC[C@@]1(c2cccc(N(C)c3ncccn3)c2)C2=CN=NC2NC2=C1C(=O)NC(C)(C)C2 (stereo partly specified) [US20250313563, Compound 947826]
6.00 to 7.00	< 5.30	CCn1cc(N2CCC3=C(C2=O)[C@](CC)(c2cccc(C(F)(F)F)c2)C2=CN=NC2N3)cn1 (stereo partly specified) [US20250313563, Compound 949868]
> 7.00	6.00 to 7.00	CC1(C)CC(=O)C2=C(C1)NC1=C(CN=N1)C21CCN(S(=O)(=O)c2cnccc2C(F)(F)F)CC1 [US20250313563, Compound 947463]
6.00 to 7.00	6.00 to 7.00	CC[C@]1(c2ccccc2)C2=CN=NC2NC2=C1C(=O)C[C@@]1(CCCOC1)C2 (stereo partly specified) [US20250313563, Compound 816879]
6.00 to 7.00	5.30 to 6.00	CCC1(c2cccc(CN(C)C(C)=O)c2)C2=CN=NC2NC2=C1C(=O)CC(C)(C)C2 (stereo unspecified) [US20250313563, Compound 865194]
> 7.00	6.00 to 7.00	CCC1(c2cccc(-c3ccnc(C)c3)c2)C2=C(CC(C)(C)CC2=O)NC2N=NC(C)=C21 (stereo unspecified) [US20250313563, Compound 883987]
> 7.00	6.00 to 7.00	CCC1(c2cccc(C(F)(F)F)c2)C2=CN=NC2NC2=C1C(=O)N(c1ccc(F)cc1)CC2 (stereo unspecified) [US20250313563, Compound 947748]
> 7.00	> 7.00 and 6.00 to 7.00	CCC1(c2cccc(N3CCCC3)c2)C2=C(CC(C)(C)NC2=O)NC2N=NC(C(F)(F)F)=C21 (stereo unspecified) [US20250313563, Compound 947860]
< 5.30	< 5.30	CCC1(c2ccccc2)C2=C(N=NC2)NC(C)=C1C(C)=O (stereo unspecified) [US20250313563, Compound 806940]
6.00 to 7.00	6.00 to 7.00	CNC(=O)C1CCC2(CC1)C1=C(N=NC1)NC1=C2C(=O)CC(C)(C)C1 (stereo unspecified) [US20250313563, Compound 945397]
< 5.30	< 5.30	CC[C@]1(c2cccc(-c3cnn(CCOC)c3)c2)C2=C(CC(C)(C)CC2=O)NC2N=NC(C)=C21 (stereo partly specified) [US20250313563, Compound 913042]
< 5.30	< 5.30	CC[C@]1(c2cccc(-c3ccnn3-c3ccc(F)cc3)c2)C2=CN=NC2NC2=C1C(=O)NC(C)(C)C2 (stereo partly specified) [US20250313563, Compound 949396]
> 7.00	> 7.00	CC1(C)CC(=O)C2=C(C1)NC1=C(CN=N1)[C@@]21COC2(CN(C(=O)c3ccccc3)C2)C1 [US20250313563, Compound 943955]
5.30 to 6.00	< 5.30	CC[C@@]1(c2cccc(-c3ccnc(C)c3)c2)C2=CN=NC2NC2=C1C(=O)N[C@@H](C)C2 (stereo partly specified) [US20250313563, Compound 926302]
> 7.00	> 7.00 and 6.00 to 7.00	CC[C@]1(c2cccc(S(=O)(=O)C3CC3)c2)C2=C(CC(C)(C)NC2=O)NC2=C1C(C(F)(F)F)N=N2 (stereo partly specified) [US20250313563, Compound 948771]
> 7.00	6.00 to 7.00	CC[C@H]1CCN1c1cccc([C@@]2(CC)C3=CN=NC3NC3=C2C(=O)CC(C)(C)C3)c1 (stereo partly specified) [US20250313563, Compound 911969]
5.30 to 6.00	< 5.30	CC(=O)N1CC2(C1)C1=C(N=NC1)NC1=C2C(=O)CC(C)(C)C1 [US20250313563, Compound 893314]
6.00 to 7.00	5.30 to 6.00	CCC1(c2cccc(-c3ccnc(C(C)C)c3)c2)C2=CN=NC2NC2=C1C(=O)CC(C)(C)C2 (stereo unspecified) [US20250313563, Compound 930569]
> 7.00	6.00 to 7.00	CC[C@@]1(c2cccc(C(F)(F)F)c2)C2=C(CCN(c3ccc(OC)cc3)C2=O)NC2N=NC(C)=C21 (stereo partly specified) [US20250313563, Compound 948226]
> 7.00	> 7.00	CC1(C)CC(=O)C2=C(C1)NC1=C(CN=N1)C21COC2(CN(C(=O)C(C)(C)C)C2)C1 (stereo unspecified) [US20250313563, Compound 947303]
6.00 to 7.00	6.00 to 7.00	CC[C@@]1(c2ccccc2)C2=C(N=NC2)NC2=C1C(=O)[C@@H]1CC[C@H]2C1 [US20250313563, Compound 791269]
> 7.00	> 7.00 and 6.00 to 7.00	CCC1(c2cccc(-c3ccnn3C)c2)C2=C(CC(C)(C)CC2=O)NC2N=NC(C(F)(F)F)=C21 (stereo unspecified) [US20250313563, Compound 945531]
